Active and inactive are the calls of the source.
What was measured:
[1] = target: T1, Short transient receptor potential channel 4 (Mus musculus, UniProt Q9QUQ5); experiment: mouse TRPC4 channel activators, dose response, cell-based, HEK293 TRPC4/mu-opioid, Fluo-4 calcium (AID 434937); type: functional
T1 sequence (Q9QUQ5 whole entry): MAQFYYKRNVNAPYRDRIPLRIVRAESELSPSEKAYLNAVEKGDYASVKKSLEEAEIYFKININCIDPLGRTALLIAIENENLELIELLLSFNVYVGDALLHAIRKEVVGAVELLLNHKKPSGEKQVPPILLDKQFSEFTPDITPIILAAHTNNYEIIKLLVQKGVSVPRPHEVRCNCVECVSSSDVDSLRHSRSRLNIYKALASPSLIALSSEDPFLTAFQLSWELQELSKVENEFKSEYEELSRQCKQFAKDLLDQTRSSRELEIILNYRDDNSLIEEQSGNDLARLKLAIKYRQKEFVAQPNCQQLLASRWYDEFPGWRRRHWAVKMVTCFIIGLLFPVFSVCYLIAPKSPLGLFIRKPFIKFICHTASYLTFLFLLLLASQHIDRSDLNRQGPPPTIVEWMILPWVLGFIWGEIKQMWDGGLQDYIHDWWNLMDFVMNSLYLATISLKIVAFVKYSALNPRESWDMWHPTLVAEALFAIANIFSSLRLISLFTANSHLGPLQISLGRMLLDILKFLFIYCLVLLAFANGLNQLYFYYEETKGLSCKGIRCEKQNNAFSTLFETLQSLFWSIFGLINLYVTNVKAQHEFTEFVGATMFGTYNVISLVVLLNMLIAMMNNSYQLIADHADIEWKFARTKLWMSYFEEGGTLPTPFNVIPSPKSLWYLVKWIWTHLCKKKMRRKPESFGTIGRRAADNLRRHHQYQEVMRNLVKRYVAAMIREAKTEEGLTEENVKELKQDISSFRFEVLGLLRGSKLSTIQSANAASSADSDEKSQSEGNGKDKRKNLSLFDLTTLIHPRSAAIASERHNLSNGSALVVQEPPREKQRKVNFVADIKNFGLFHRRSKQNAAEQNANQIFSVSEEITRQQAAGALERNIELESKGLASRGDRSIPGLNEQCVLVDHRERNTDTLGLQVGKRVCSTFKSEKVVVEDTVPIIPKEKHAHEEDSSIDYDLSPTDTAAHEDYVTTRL

[2] = THP-1 cell cytotoxicity, dose response, cytotoxicity control for non-replicating M. tuberculosis project (AID 489025); type: functional
[3] = HepG2 cell cytotoxicity, dose response, cytotoxicity control for non-replicating M. tuberculosis project (AID 489018); type: functional; conditions: Mycobacterium tuberculosis
[4] = Vero E6 cell cytotoxicity, dose response, cytotoxicity control for non-replicating M. tuberculosis project, secondary assay (AID 492998); type: functional, VeroE6; conditions: Vero C1008
cells = type: functional
Caspase-3 = target: T2, Caspase-3 (Homo sapiens, UniProt P42574); type: functional;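 further: Dose-response selectivity test against caspase-3 for candidate inhibitors of sentrin-specific proteases (SENPs)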
T2 sequence (P42574 whole entry): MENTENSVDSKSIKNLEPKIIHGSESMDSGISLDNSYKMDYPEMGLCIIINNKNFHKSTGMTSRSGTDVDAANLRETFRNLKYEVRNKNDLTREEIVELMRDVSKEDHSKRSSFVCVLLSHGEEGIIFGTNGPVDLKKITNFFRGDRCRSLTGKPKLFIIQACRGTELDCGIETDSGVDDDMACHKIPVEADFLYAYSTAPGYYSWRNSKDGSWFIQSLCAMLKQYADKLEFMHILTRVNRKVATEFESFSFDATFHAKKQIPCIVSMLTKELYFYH

[5] = target: T3, Sentrin-specific protease 7 (Homo sapiens, UniProt Q9BQF6); type: functional;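 further: Luminescence-based dose-response confirmation of ultra-high-throughput screening hits, measuring inhibition of SENP7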
T3 sequence (Q9BQF6 whole entry): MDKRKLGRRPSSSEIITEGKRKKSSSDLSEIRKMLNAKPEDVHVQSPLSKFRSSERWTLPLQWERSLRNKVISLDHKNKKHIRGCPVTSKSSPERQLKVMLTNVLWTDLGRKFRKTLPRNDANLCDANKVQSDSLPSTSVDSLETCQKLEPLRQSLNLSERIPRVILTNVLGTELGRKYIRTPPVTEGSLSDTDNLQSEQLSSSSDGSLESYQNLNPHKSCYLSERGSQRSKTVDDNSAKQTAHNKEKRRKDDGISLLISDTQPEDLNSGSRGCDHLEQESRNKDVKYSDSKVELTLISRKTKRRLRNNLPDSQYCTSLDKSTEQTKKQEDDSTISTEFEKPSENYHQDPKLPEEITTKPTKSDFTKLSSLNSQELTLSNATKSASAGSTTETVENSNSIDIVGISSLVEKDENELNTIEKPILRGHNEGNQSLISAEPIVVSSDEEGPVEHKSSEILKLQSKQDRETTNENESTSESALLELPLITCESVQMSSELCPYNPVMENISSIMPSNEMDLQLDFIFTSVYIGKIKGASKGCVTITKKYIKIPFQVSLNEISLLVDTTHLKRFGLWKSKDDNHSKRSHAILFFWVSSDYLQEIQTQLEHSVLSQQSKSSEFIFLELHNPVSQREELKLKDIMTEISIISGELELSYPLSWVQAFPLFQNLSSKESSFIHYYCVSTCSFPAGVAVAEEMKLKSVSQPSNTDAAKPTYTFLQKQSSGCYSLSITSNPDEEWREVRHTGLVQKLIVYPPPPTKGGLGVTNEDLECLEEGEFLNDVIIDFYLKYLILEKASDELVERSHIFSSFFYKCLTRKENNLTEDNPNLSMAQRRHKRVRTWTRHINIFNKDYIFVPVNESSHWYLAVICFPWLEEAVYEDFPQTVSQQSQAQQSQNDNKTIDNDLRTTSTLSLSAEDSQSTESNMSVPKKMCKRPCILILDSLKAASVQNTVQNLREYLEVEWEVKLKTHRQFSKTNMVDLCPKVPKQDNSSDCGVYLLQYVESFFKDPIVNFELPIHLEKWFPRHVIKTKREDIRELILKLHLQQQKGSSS

[6] = target: T4, Sentrin-specific protease 6 (Homo sapiens, UniProt Q9GZR1); type: functional;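 further: Luminescence-based dose-response confirmatory assay of SENP6 inhibition, following up an ultra-high-throughput screen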
T4 sequence (Q9GZR1 whole entry): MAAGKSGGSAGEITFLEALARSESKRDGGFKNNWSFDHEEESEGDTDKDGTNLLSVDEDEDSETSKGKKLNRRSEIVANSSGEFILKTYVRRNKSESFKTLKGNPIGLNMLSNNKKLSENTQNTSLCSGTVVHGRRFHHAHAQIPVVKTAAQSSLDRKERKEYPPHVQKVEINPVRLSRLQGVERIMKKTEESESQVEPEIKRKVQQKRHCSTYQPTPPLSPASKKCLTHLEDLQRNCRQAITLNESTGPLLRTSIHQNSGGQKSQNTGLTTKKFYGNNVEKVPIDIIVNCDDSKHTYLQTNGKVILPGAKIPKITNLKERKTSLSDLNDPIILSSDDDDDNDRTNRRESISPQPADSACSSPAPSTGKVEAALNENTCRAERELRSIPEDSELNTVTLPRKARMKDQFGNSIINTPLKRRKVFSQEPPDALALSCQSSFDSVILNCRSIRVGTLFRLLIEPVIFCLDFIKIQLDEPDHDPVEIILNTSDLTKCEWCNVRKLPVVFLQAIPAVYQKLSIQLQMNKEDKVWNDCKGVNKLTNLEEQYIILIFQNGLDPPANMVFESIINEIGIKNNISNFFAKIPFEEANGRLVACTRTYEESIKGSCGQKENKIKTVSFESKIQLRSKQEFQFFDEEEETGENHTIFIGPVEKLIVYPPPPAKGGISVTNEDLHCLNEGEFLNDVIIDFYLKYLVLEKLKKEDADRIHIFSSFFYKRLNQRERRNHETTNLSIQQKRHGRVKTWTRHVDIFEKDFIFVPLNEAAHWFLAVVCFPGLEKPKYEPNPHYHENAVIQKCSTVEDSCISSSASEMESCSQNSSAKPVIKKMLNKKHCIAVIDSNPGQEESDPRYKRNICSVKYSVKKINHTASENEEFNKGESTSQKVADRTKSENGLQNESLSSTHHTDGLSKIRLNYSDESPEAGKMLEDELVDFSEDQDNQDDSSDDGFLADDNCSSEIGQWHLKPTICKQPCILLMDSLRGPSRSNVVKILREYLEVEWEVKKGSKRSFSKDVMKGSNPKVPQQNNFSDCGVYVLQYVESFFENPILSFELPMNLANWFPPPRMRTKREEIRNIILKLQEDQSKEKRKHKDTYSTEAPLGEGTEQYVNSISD

[7] = target: T5, Sentrin-specific protease 8 (Homo sapiens, UniProt Q96LD8); type: functional;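 further: luminescence read-out of SENP8 inhibition, dose-response confirmation following an ultra-high-throughput screen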
T5 sequence (Q96LD8 whole entry): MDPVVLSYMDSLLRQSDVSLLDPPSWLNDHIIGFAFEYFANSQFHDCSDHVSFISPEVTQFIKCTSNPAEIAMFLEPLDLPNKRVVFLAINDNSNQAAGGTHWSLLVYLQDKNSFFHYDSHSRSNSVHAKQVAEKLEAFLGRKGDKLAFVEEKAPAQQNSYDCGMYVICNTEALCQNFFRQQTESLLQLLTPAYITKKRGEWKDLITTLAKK

Protein skinhead-1 = target: T6, Protein skinhead-1 (Caenorhabditis elegans, UniProt P34707); type: functional
T6 sequence (P34707 whole entry): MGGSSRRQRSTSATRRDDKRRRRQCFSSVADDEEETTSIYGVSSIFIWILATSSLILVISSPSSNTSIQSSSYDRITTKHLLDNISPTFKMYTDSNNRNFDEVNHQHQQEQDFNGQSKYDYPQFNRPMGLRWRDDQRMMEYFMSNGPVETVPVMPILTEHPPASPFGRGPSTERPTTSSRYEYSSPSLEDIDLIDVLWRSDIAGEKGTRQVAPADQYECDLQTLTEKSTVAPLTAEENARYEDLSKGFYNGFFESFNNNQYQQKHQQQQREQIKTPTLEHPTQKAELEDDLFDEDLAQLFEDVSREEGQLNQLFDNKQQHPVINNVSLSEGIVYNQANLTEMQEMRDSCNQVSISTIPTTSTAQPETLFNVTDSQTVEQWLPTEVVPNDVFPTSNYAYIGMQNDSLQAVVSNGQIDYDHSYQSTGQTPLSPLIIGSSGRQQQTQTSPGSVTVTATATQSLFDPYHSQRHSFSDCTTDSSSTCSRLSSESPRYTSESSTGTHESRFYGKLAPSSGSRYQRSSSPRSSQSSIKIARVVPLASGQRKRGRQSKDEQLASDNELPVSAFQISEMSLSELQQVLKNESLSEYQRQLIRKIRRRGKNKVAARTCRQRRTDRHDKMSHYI

HeLa = experiment: HeLa cell cytotoxicity, dose response, cytotoxicity control for MITF activator project, CellTiter-Glo luminescence, cherry-pick samples (AID 540259); type: functional, cell-based; conditions: Homo sapiens
[8] = target: Beta-2 adrenergic receptor (Homo sapiens, UniProt P07550); experiment: beta2AR agonists driving receptor internalization, dose response, cell-based, FAP fluorogen, flow cytometry, cherry pick 1 (AID 588763); type: functional
Hexokinase = target: T7, Hexokinase (Trypanosoma brucei, UniProt Q38C41); experiment: Confirmation assay for inhibitors of Trypanosoma brucei hexokinase 1-Analogue-first series. [Related pubchem assays (depositor defined):AID1430, AID1632, AID2516, AID2560, AID2579, AID2600, AID449725, AID492951]; type: functional
T7 sequence (Q38C41 whole entry): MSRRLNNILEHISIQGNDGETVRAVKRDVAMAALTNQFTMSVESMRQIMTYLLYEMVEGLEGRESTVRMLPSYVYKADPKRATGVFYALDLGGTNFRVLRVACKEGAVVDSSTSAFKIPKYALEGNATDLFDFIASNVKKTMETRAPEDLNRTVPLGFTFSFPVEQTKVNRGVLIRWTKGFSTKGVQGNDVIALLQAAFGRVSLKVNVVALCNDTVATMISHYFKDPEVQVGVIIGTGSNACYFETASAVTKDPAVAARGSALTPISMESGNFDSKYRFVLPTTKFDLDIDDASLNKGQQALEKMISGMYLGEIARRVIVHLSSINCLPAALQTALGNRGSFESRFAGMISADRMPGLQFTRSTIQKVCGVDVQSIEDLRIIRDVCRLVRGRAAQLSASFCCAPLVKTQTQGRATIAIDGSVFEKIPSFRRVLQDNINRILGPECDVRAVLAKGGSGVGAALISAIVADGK

[9] = Luminescence Cell-Based Dose Retest to Confirm Inhibitors of Cancer Stem Cells. [Related pubchem assays (depositor defined):AID2717, AID2721]; type: functional; conditions: Homo sapiens

Chain of Beta-2 adrenergic receptor (P07550 whole entry): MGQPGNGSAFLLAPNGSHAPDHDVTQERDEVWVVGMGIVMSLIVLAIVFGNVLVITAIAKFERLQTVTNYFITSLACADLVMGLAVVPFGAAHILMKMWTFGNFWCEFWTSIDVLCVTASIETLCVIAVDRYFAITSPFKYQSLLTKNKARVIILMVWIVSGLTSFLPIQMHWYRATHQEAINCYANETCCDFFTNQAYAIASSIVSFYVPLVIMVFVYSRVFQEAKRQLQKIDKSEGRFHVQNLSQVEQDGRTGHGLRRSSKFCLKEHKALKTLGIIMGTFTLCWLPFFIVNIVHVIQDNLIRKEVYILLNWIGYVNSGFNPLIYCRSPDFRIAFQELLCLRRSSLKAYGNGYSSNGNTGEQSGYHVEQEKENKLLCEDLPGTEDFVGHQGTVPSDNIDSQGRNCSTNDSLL

In the case of `CCn1c(=O)cc(OCC(=O)NCCCN2CC(C)CC(C)C2)c2ccccc21` (centres undefined), the EC50 [1] is reported as 0.473 µM (active).

In the case of `CN(C)c1c2ccccc2nc2c(F)c(F)c(F)c(F)c12`, the CC50 [2] is reported as 22.9 µM (active), the CC50 [3] is reported as > 20 µM (active) and the CC50 [4] is reported as > 20 µM (active). For the same compound, the IC50 (cells) was 17.7 µM (active).

For `Clc1ccc(-c2nnc(-c3ccccc3Cl)o2)cc1`, the IC50 (Caspase-3) was 3.19 µM (active), the IC50 [5] was 2.65 µM (active) and the IC50 [6] was 3.19 µM (active). For the same compound, the IC50 [7] was 8.03 µM (active) and the IC50 (Protein skinhead-1) was > 100 µM (inactive).

With `O=C(Nc1ccc2c(c1)CCC2)C1CCCN(c2ncccn2)C1` (centres undefined) the AC50 (HeLa) was 104 µM (active).

For `O=C(/C=C/c1ccco1)Nc1ccc(N2CCCC2)cc1`, the IC50 (Caspase-3) was > 100 µM (inactive), the IC50 [5] was > 100 µM (inactive) and the IC50 [6] was > 100 µM (inactive). For the same compound, the IC50 [7] was > 100 µM (inactive).

With `CCCNC(=O)Nc1nc2ccccc2s1` the AC50 (HeLa) was 191 µM (active).

With `CC1CC(C)CN(CCCNC(=O)c2csc3c2CCCCC3)C1` (centres undefined) the EC50 [1] was 4.73 µM (active).

In the case of `Cc1ccc(Sc2cc(N3CCOCC3)nc(-c3ccccc3)n2)cc1`, the EC50 [8] is reported as 4.82 µM (active).

With `COc1ccc(C(C)=O)cc1COc1ccc(Cl)cc1Cl` the EC50 [8] was 2.67 µM (active).

For `Cc1ccc(C(=O)Nc2cc(Cl)ccc2C(=O)O)c(C)c1`, the IC50 (Hexokinase) was > 25 µM (inactive).

In the case of `N#Cc1ccccc1NC(=O)Cn1sc2ccccc2c1=O`, the IC50 (Hexokinase) is reported as 7.21 µM (active).

With `COc1cc(OC)cc(-c2cc3cc(F)ccc3cn2)c1` the AC50 (HeLa) was 50.6 µM (active).

For `O=C(Cn1sc2ccccc2c1=O)N1CCOCC1`, the IC50 (Hexokinase) was > 25 µM (inactive).

In the case of `Brc1ccc(/C=N/Nc2ccccc2)cc1`, the AC50 [9] is reported as 3.98 µM (active) and the AC50 (HeLa) is reported as 65.5 µM (active).

In the case of `Brc1ccc(/C=N/Nc2ccccn2)cc1`, the IC50 (Caspase-3) is reported as 15.8 µM (active), the IC50 [5] is reported as 2.96 µM (active) and the IC50 [6] is reported as 4.07 µM (active). The IC50 [7] was > 100 µM (inactive).

Source: ChEMBL document CHEMBL1201862, “PubChem BioAssay data set” (2004)
